Results published in the supplement of paper PMC11451515.

Tests used:
Details in all cases: 48 h
SEM cells [1] = experiment: cell viability relative to DMSO control; higher = less cytotoxic
In short: (§1)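 Before seeding, each leukemia line was adapted for at least four passages in each medium. NOMO1 or SEM cells (500 cells/well) and P12-Ichikawa cells (1000 cells/well) went into 1536-well plates at 5 μl, then received library compounds in DMSO by pin dosing across 11 threefold concentrations, 47 μM to 0.79 nM. Readout was CellTiter-Glo One luminescence after 48 h at 37°C, and viability is given as a per-plate percentage of DMSO wells, with cell-free wells as background.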

NOMO1 [2] = experiment: as above
In short: as §1

P12-Ichikawa [3] = experiment: as above
In short: as §1

NOMO1 [4] = experiment: AUC of viability dose-response curve (% viability x log10 dose units); higher = less sensitive
In short: (§2)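 Medium-adapted leukemia cells in 1536-well plates, at 500 or 1000 cells/well, were incubated for 48 h at 37°C with library compounds in DMSO at 11 threefold doses from 47 μM to 0.79 nM. CellTiter-Glo One luminescence normalised per plate to DMSO and cell-free wells was fitted with a four-parameter log-logistic model over log10 doses. Area under the curve was integrated from this fit by trapezoidal rule, with curves beyond full viability scaled and failed quality-control curves removed.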

P12-Ichikawa [5] = experiment: as above
In short: as §2

SEM cells [6] = experiment: as above
In short: as §2

C=CC(=O)Nc1cccc(Oc2nc(Nc3ccc(N4CCN(C)CC4)cc3OC)ncc2Cl)c1
cell viability [%]
Details	NOMO1 [2]	P12-Ichikawa [3]	SEM cells [1]
HPLM + 10% dialyzed FBS, 0.000781 µM	64.3	75	58.4
HPLM + 10% dialyzed FBS, 0.00234 µM	69.5	79.3	72.7
HPLM + 10% dialyzed FBS, 0.00702 µM	78.3	78.4	56.4
HPLM + 10% dialyzed FBS, 0.0211 µM	79.1	84.9	65.8
HPLM + 10% dialyzed FBS, 0.0632 µM	81.9	84.7	74
HPLM + 10% dialyzed FBS, 0.19 µM	80.6	86.3	81.1
HPLM + 10% dialyzed FBS, 0.569 µM	73.9	83	72.3
HPLM + 10% dialyzed FBS, 1.71 µM	76.5	79.6	68.5
HPLM + 10% dialyzed FBS, 5.12 µM	54.7	76.5	33.2
HPLM + 10% dialyzed FBS, 15.4 µM	45.1	70.6	48
HPLM + 10% dialyzed FBS, 46.1 µM	33.3	52.2	13.3
RPMI 5 mM glucose + 10% FBS, 0.000781 µM	72.9	68	80.4
RPMI 5 mM glucose + 10% FBS, 0.00234 µM	74.3	76	89.2
RPMI 5 mM glucose + 10% FBS, 0.00702 µM	79.3	76.1	60.5
RPMI 5 mM glucose + 10% FBS, 0.0211 µM	78.8	79.5	88.2
RPMI 5 mM glucose + 10% FBS, 0.0632 µM	87.1	80.9	94.2
RPMI 5 mM glucose + 10% FBS, 0.19 µM	102	83.7	91.2
RPMI 5 mM glucose + 10% FBS, 0.569 µM	82.1	80.1	56.4
RPMI 5 mM glucose + 10% FBS, 1.71 µM	52.1	82.1	65.3
RPMI 5 mM glucose + 10% FBS, 5.12 µM	67.3	66	22.6
RPMI 5 mM glucose + 10% FBS, 15.4 µM	62.1	58.3	41.6
RPMI 5 mM glucose + 10% FBS, 46.1 µM	55.8	50.3	5.05
RPMI 5 mM glucose + 10% dialyzed FBS, 0.000781 µM	69.6	73	62.5
RPMI 5 mM glucose + 10% dialyzed FBS, 0.00234 µM	77.9	89.4	69.8
RPMI 5 mM glucose + 10% dialyzed FBS, 0.00702 µM	79.4	82.8	52.6
RPMI 5 mM glucose + 10% dialyzed FBS, 0.0211 µM	85.8	79.9	58.2
RPMI 5 mM glucose + 10% dialyzed FBS, 0.0632 µM	80.6	81.6	70.8
RPMI 5 mM glucose + 10% dialyzed FBS, 0.19 µM	79.2	80.9	72.9
RPMI 5 mM glucose + 10% dialyzed FBS, 0.569 µM	77.3	74.6	64.1
RPMI 5 mM glucose + 10% dialyzed FBS, 1.71 µM	87.9	83.3	42.3
RPMI 5 mM glucose + 10% dialyzed FBS, 5.12 µM	66.1	70.6	24.1
RPMI 5 mM glucose + 10% dialyzed FBS, 15.4 µM	72.2	64.7	41.8
RPMI 5 mM glucose + 10% dialyzed FBS, 46.1 µM	45.5	49.5	18

AUC of viability dose-response curve
Details	HPLM + 10% dialyzed FBS	RPMI 5 mM glucose + 10% FBS	RPMI 5 mM glucose + 10% dialyzed FBS
NOMO1 [4]	325	355	362
P12-Ichikawa [5]	374	351	365

CC1=CC=C(C=C1)N(C\C2=N\CCN2)C3=CC=CC(=C3)O
SEM cells [1], HPLM + 10% dialyzed FBS
Details	cell viability [%]
0.000781 µM	118
0.00234 µM	114
0.00702 µM	122
0.0211 µM	120
0.0632 µM	117
0.19 µM	126
0.569 µM	132
1.71 µM	131
5.12 µM	131
15.4 µM	131
46.1 µM	68.4

AUC of viability dose-response curve
Details	NOMO1 [4]	P12-Ichikawa [5]	SEM cells [6]
HPLM + 10% dialyzed FBS	352	473	454
RPMI 5 mM glucose + 10% FBS	403	452	464
RPMI 5 mM glucose + 10% dialyzed FBS	407	459	468

Cn1cnc2c(F)c(Nc3ccc(Br)cc3Cl)c(C(=O)NOCCO)cc21
AUC of viability dose-response curve
Details	NOMO1 [4]	P12-Ichikawa [5]	SEM cells [6]
HPLM + 10% dialyzed FBS	260	295	295
RPMI 5 mM glucose + 10% FBS	289	295	278
RPMI 5 mM glucose + 10% dialyzed FBS	258	299	273
